Assay type in all cases: cell-based
Experiment [1] addresses T1, BRD4 (Homo sapiens, UniProt O60885). The experiment can be described thus: Summary of BRD4 degradation by CURE-PRO pairs, estimated from Western Blot or WES. On the set-up: endogenous in cells. Put shortly:
(§1)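 Degradation read-out from immunoblot with ECL, or WES capillary electrophoresis with HRP detection, of RIPA lysates. Cells (Namalwa, Ramos, HeLa, MCF7, HT29 or HCT116) were exposed to DMSO-solubilized compounds for 24 h; a check mark marks 30% to 70% or higher degradation.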

Experiment [2] deals with T1, BRD4. The experiment can be described thus: CURE-PRO-mediated BRD4 degradation in MCF7 cells, Western blot. On the set-up: endogenous in cells. The settings on record: 1:1 with VHL ligand 8305, MCF7, 24 h, 100 nM-10 μM. The method, then:
(§2) Namalwa, Ramosm HeLa, MCF7, or HT29 HCT116 cells (2.5-3×10^6) were treated for 24 hours with the indicated compounds solubilized in DMSO. The cells were washed in ice-cold PBS and were then lysed in RIPA lysis buffer (150 mM NaCl, 5 mM EDTA, 1% NP-40, 0.5% sodium deoxycholate, 0.1% SDS, 50 mM Tris, pH 8.0.) with Roche protease inhibitor complete cocktail and phosphatase inhibitors (10 mM sodium fluoride, 10 mM sodium pyrophosphate, 1 mM sodium orthovanadate and 20 mM β-glycerophosphate). The total protein concentrations were determined by Bradford Protein Assay (Pierce) and 10-20 μg of protein was loaded onto 4-15% Tris-Glycine gradient gels (Biorad). After standard gel electrophoresis, the separated proteins were transferred to PVDF membrane by wet transfer. The immunoblots were then blocked for 1 hour in 5% skim milk in TBST or 5% BSA in TBST, according to manufacturer's instructions, before an overnight incubation at 4° C. with indicated antibodies and membranes. Membranes were then incubated with the appropriate horseradish peroxidase-conjugated secondary antibodies (1:5,000 dilution) for 1 h at room temperature and the bands were visualized using the Clarity Max Western ECL Substrate (Biorad) and the ChemiDoc Imaging System (Biorad). Signal was detected with ECL Western Blotting Substrate (Pierce) and X-ray film processed with a Konica SRX-101 X-ray film processor or captured by Bio-Rad's Chemidoc Imaging system.
MCF7 cells (3×10^6) were treated for 24 h with the compounds solubilized in DMSO. Compounds were added at 100 nM-10 μM. Standardized protein samples were electrophoresed and imaged as described in the Immunoblotting section above. FIG. 69 depicts the CURE-PRO-mediated BRD4 degradation for the BRD-E9 monomer and VHL ligands 8305 combined in a 1:1 ratio, and FIG. 70 depicts the CURE-PRO-mediated BRD4 degradation for the BRD-E20 monomer and 8305.
MCF7 cells (3×10^6) were treated for 24 h with the compounds solubilized in DMSO. Compounds were added at 1 μM-10 μM. Standardized protein samples were electrophoresed and imaged as described in the Immunoblotting section above. FIG. 71 depicts the CURE-PRO-mediated BRD4 degradation for the BRD-E50 monomer and VHL ligands 8305 and 8304 combined in a 1:1 ratio.
On the technique in general: In western blotting, separated proteins are transferred to a membrane and probed.

The target in experiment [3] is T2, c-MYC (Homo sapiens, UniProt P01106). Nature of the experiment: CURE-PRO-mediated c-MYC degradation in MCF7 cells, Western blot. On the set-up: endogenous in cells. The procedure:
as §2
MCF7 cells (3×10^6) were treated for 24 h with the compounds solubilized in DMSO. Compounds were added at 100 nM-10 μM each. Standardized protein samples were electrophoresed and imaged as described in the immunoblotting section above. c-MYC monomer, MYC-E33 (FIG. 99) (a 10058-F4 derivatives comprising boronic acid linkers), and VHL ligands, 8304 and 8305 (VH-298 derivatives comprising diol linkers) were combined in a 1:1 ratio.

In experiment [4] the target is T2, c-MYC. The experiment can be described thus: CURE-PRO-mediated c-MYC degradation in HCT1116 cells, Western blot or WES. On the set-up: HT29 cells (2.5×10^6) were treated for 24 h with the compounds solubilized in DMSO; endogenous in cells; host or cells: HT29. The settings on record: 1:1 with MDM2 ligand 8310, HCT1116, 24 h, 10 nM-10 μM each.
Experiment [5] concerns the target T2, c-MYC. Nature of the experiment: Summary of C-MYC degradation by CURE-PRO pairs, estimated from Western Blot or WES. The settings on record: for Degradation of C-MYC, combination with MDM2 ligand 8310: Table 11, aromatic 1,2-diol MYC ligand + 8310; for Degradation of C-MYC, combination with MDM2 ligand 8312: Table 11, aromatic 1,2-diol MYC ligand + 8312. On the set-up: endogenous in cells; host or cells: HT29. The method in brief: as §1

Experiment [6] deals with T2, c-MYC. The experiment can be described thus: CURE-PRO-mediated c-MYC degradation in HCT1116 cells, Western blot or WES. On the set-up: endogenous in cells; host or cells: HT29. The settings on record: 1:1 with MDM2 ligand 8312, HCT1116, 24 h, 10 nM-10 μM each. The procedure:
as §2
WES Simple analysis was performed on WES system (ProteinSimple-Biotechne) according to the manufacturer's instructions. Total protein concentrations of cell lysates were determined by the Pierce BCA kit (Thermo Fisher). 3 μL of 0.3 μg/μL of the protein lysate was loaded onto a 12- to 230-kDa WES assay plate (ProteinSimple) where 300 nL sample was withdrawn through a capillary, subjected to electrophoretic separation of proteins by size, and followed by the simultaneous, HRP-based detection of proteins using the Anti-Rabbit Detection Module (Proteinsimple: #DM-001). The electropherograms were checked then the automatic peak detection was manually corrected if it was required.
HCT1116 cells (2.5×10^6) were treated for 24 h with the compounds solubilized in DMSO. Compounds were added at 10 nM-10 μM each. Standardized protein samples were electrophoresed and imaged as described in the immunoblotting or WES (Proteinsimple) sections above. c-MYC monomers, MYC-N20 (FIG. 100, a 10074-G5 derivative comprising diol linkers), and MYC-N10 (FIG. 101), MYC-N6 (FIG. 102), and MYC-N9 (FIG. 103) (10058-F4 derivatives comprising diol linkers), and MDM2 ligands, 8310 and 8312 (Nutlin 3a derivatives comprising boronic acid linkers) were combined in a 1:1 ratio.
HCT1116 cells (2.5×10^6) were treated for 24 h with the compounds solubilized in DMSO. Compounds were added at 1 μM-10 μM each.

In experiment [7] the target is T2, c-MYC. Nature of the experiment: CURE-PRO-mediated c-MYC degradation in HT29 cells, Western blot. Further details: endogenous in cells; host or cells: HT29. The procedure: as §2
HT29 cells (2.5×10^6) were treated for 24 h with the compounds solubilized in DMSO. Compounds were added at 10 nM-10 μM each, as indicated in the description of the figures. Standardized protein samples were electrophoresed and imaged as described in the immunoblotting section above. c-MYC monomers (10058-F4 derivatives comprising catechol linkers), and CRBN ligands, 8048 and 8049 (pomalidomide derivatives comprising boronic acid linkers) combined in a 1:1 ratio.
HT29 cells (2.5×10^6) were treated for 24 h with the compounds solubilized in DMSO. Compounds were added at 100 nM-10 μM each.
HT29 cells (2.5×10^6) were treated for 24 h with the compounds solubilized in DMSO. Compounds were added at 100 nM-10 μM each. Standardized protein samples were electrophoresed and imaged as described in the immunoblotting section above. c-MYC monomer, MYC-E1, (a 10058-F4 derivative comprising boronic acid linkers), and CRBN ligands, 8046, 8047 and 8066 (pomalidomide derivatives comprising diol linkers) combined in a 1:1 ratio.
HT29 cells (2.5×10^6) were treated for 24 h with the compounds solubilized in DMSO. Compounds were added at 100 nM-10 μM each. Standardized protein samples were electrophoresed and imaged as described in the immunoblotting section above. c-MYC monomers, MYC-E6 (FIG. 90), MYC-E10 (FIG. 91), and MYC-E16 (FIG. 92) (10074-G5 derivatives comprising boronic acid linkers), and CRBN ligands, 8046, 8047 and 8066 (pomalidomide derivatives comprising diol linkers) combined in a 1:1 ratio.
HT29 cells (2.5×10^6) were treated for 24 h with the compounds solubilized in DMSO. Compounds were added at 10 nM-10 μM each. Standardized protein samples were electrophoresed and imaged as described in the immunoblotting section above. c-MYC monomer, MYC-N16 (FIG. 93) (10074-G5 derivatives comprising diol linkers), and VHL ligands, 8297 and 8298 (VH-298 derivatives comprising boronic acid linkers) were combined in a 1:1 ratio.
HT29 cells (2.5×10^6) were treated for 24 h with the compounds solubilized in DMSO. Compounds were added at 10 nM-10 μM each. Standardized protein samples were electrophoresed and imaged as described in the immunoblotting section above. c-MYC monomers, MYC-E7 (FIG. 96), MYC-E10 (FIG. 97), and MYC-E17 (FIG. 98), (10074-G5 derivatives comprising boronic acid linkers), and VHL ligands, 8297 and 8298 (VH-298 derivatives comprising diol linkers) were combined in a 1:1 ratio.

The structures appear in SMILES notation. “Also recorded” adds a separate entry of the source.

T2 sequence (P01106 whole entry): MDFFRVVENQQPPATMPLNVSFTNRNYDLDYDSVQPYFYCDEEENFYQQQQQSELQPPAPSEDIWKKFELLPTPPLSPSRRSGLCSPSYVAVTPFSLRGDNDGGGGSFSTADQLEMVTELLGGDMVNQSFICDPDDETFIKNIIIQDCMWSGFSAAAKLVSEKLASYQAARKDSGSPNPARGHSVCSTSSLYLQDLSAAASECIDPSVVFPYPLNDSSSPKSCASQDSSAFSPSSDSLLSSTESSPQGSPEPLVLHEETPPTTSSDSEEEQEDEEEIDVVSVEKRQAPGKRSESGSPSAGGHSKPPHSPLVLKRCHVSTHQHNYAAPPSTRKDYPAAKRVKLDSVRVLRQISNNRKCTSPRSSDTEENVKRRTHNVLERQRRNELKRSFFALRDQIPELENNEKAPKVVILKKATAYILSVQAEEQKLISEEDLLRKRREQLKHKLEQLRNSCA

For `COc1ccc2c(c1)C(c1ccc(Cl)cc1)=N[C@@H](CC(=O)NCc1ccc(B(O)O)cc1)c1nnc(C)n1-2` [BRD-E9, (4-((2-((4S)-6-(4-chlorophenyl)-8-methoxy-1-methyl-4H-benzo[f][1,2,4]triazolo[4,3-a][1,4]diazepin-4-yl)acetamido)methyl)phenyl)boronic acid], in experiment [1] (Table 1, aryl-boronic acid BRD4 ligand + 8047), the “Degradation of BRD4, combination with CRBN ligand 8047” value is on record as “√ (A black check mark indicates efficacy of 30% to 70% or higher protein degradation)”. For the same compound, in experiment [1] (Table 3, aryl-boronic acid BRD4 ligand + 8305), the “Degradation of BRD4, combination with VHL ligand 8305” value is given as “√ (A black check mark indicates efficacy of 30% to 70% or higher protein degradation)”. For the same compound, in experiment [2], the BRD4 degradation result is listed as “there is degradation of BRD4”.

Take `CCc1ccc(/C=C2\SC(=O)N(CCNC(=O)c3ccc(B(O)O)cc3)C2=O)cc1` [MYC-E33]: the c-MYC degradation result in experiment [3] (1:1 with VHL ligand 8304, MCF7, 24 h, 100 nM-10 μM each) is “caused partial degradation of c-MYC”; in experiment [3] (1:1 with VHL ligand 8305, MCF7, 24 h, 100 nM-10 μM each), “no loss of c-MYC protein was observed”; in experiment [3] (c-MYC monomer alone, MCF7, 24 h, 100 nM-10 μM) it was “no loss of c-MYC protein was observed”.

For `CCc1ccc(/C=C2\SC(=O)N(CCCc3cccc(O)c3O)C2=O)cc1` [MYC-N6], the c-MYC degradation entry in experiment [4] is given as “caused degradation of c-MYC protein; also recorded: Degradation was noted”. The “Degradation of C-MYC, combination with MDM2 ligand 8310” value (“Degradation … with MDM2 ligand 8310” below) in experiment [5] is given as “√ (A black check mark indicates efficacy of 30% to 70% or higher protein degradation)”.

Consider `CCc1ccc(/C=C2\SC(=O)N(CCOCCNC(=O)c3ccc(O)c(O)c3)C2=O)cc1` [MYC-N9], for which the c-MYC degradation entry in experiment [4] is listed as “caused degradation of c-MYC at higher concentrations”; in experiment [6], “caused degradation of c-MYC at higher concentrations”; in experiment [7] (1:1 with CRBN ligand 8048, HT29, 24 h, 10 nM-10 μM each), “some degradation is noted; also recorded: caused degradation of c-MYC”; in experiment [7] (1:1 with CRBN ligand 8049, HT29, 24 h, 10 nM-10 μM each), “produces greater c-MYC degradation than 8048; also recorded: caused degradation of c-MYC”; in experiment [7] (c-MYC monomer alone, HT29, 24 h, 10 nM-10 μM), “there is no degradation of c-MYC”. Further, in experiment [5], the “Degradation … with MDM2 ligand 8310” value is given as “√ (A black check mark indicates efficacy of 30% to 70% or higher protein degradation)”.

As to `CCc1ccc(/C=C2\SC(=O)N(CCOCCNC(=O)c3cccc(O)c3O)C2=O)cc1` [MYC-N10], the c-MYC degradation entry in experiment [4] and in experiment [6] was “caused degradation of c-MYC at higher concentrations; also recorded: Degradation was noted” throughout. Besides, the “Degradation of C-MYC, combination with MDM2 ligand 8312” value in experiment [5] is on record as “√ (A black check mark indicates efficacy of 30% to 70% or higher protein degradation)”.

On to `O=C(NCCNC(=O)c1cccc(O)c1O)c1ccc(Nc2ccc([N+](=O)[O-])c3nonc23)cc1` [MYC-N20], for which the c-MYC degradation entry in experiment [4] is listed as “caused degradation of c-MYC protein”. Also, in experiment [6], the c-MYC degradation result is “negligible effects”. Further, in experiment [5], the “Degradation … with MDM2 ligand 8310” value is listed as “√ (A black check mark indicates efficacy of 30% to 70% or higher protein degradation)” and the “Degradation of C-MYC, combination with MDM2 ligand 8312” value is given as “√ (A black check mark indicates efficacy of 30% to 70% or higher protein degradation)”.

Source of the values: US20230285570A1, “THERAPEUTICALLY USEFUL CURE-PRO MOLECULES FOR E3 LIGASE MEDIATED DEGRADATION OF PROTEINS, AND METHODS OF MAKING AND USING THEM” (CORNELL UNIVERSITY, priority 2020, published 2023).
